Laboratory results taken from ChEMBL document CHEMBL4033774, “Class I HDAC Inhibitors: Potential New Epigenetic Therapeutics for Alcohol Use Disorder (AUD)” (J Med Chem, 2018).

What was measured:
Histone deacetylase 1 [1] = target: T1, Histone deacetylase 1 (Homo sapiens, UniProt Q13547); test: Inhibition of human full length C-terminal His/FLAG-tagged HDAC1 expressed in baculovirus infected Sf9 insect cells after 1 hr in presence of acetylated lysine substrate by fluorescence assay
Histone deacetylase 2 [2] = target: T2, Histone deacetylase 2 (Homo sapiens, UniProt Q92769); test: Inhibition of human full length C-terminal His-tagged HDAC2 expressed in baculovirus infected Sf9 insect cells after 1 hr in presence of acetylated lysine substrate by fluorescence assay
T2 sequence (Q92769 whole entry): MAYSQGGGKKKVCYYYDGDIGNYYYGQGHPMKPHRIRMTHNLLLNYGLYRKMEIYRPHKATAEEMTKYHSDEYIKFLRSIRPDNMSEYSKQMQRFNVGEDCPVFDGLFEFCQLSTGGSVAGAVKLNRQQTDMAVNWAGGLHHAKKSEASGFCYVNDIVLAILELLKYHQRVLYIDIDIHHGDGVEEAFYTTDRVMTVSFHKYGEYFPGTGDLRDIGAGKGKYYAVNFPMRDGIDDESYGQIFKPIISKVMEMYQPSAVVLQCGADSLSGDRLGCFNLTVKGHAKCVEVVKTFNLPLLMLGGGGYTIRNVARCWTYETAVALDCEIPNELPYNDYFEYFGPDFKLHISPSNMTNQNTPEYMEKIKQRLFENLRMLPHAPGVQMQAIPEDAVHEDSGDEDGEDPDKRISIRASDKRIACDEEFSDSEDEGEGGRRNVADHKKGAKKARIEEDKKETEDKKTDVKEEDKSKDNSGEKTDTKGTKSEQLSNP

Homo sapiens = organism: Homo sapiens; test: Selectivity ratio of IC50 for human full length C-terminal His/FLAG-tagged HDAC1 expressed in baculovirus infected Sf9 insect cells to IC50 for human full length C-terminal His-tagged HDAC2 expressed in baculovirus infected Sf9 insect cells
[3] = target: T3, Histone deacetylase 3/Nuclear receptor corepressor 2 (HDAC3/NCoR2) (Homo sapiens, UniProt O15379); test: Inhibition of human full length C-terminal His-tagged HDAC3/N-terminal GST-tagged human NCOR2 co-expressed in baculovirus infected Sf9 insect cells after 1 hr in presence of acetylated lysine substrate by fluorescence assay
T3 sequence (O15379 whole entry): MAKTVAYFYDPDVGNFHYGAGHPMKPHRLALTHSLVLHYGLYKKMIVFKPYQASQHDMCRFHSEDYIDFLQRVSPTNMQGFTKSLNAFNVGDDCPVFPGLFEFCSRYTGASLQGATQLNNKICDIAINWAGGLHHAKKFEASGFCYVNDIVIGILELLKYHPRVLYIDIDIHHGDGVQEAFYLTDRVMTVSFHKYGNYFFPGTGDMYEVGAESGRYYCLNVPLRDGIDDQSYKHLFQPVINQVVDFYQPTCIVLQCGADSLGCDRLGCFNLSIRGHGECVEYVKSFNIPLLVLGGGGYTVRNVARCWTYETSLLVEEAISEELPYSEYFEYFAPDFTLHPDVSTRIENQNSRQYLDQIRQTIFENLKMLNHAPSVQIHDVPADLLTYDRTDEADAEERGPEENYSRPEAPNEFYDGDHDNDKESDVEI
T3 sequence (Q9Y618 whole entry, further chain): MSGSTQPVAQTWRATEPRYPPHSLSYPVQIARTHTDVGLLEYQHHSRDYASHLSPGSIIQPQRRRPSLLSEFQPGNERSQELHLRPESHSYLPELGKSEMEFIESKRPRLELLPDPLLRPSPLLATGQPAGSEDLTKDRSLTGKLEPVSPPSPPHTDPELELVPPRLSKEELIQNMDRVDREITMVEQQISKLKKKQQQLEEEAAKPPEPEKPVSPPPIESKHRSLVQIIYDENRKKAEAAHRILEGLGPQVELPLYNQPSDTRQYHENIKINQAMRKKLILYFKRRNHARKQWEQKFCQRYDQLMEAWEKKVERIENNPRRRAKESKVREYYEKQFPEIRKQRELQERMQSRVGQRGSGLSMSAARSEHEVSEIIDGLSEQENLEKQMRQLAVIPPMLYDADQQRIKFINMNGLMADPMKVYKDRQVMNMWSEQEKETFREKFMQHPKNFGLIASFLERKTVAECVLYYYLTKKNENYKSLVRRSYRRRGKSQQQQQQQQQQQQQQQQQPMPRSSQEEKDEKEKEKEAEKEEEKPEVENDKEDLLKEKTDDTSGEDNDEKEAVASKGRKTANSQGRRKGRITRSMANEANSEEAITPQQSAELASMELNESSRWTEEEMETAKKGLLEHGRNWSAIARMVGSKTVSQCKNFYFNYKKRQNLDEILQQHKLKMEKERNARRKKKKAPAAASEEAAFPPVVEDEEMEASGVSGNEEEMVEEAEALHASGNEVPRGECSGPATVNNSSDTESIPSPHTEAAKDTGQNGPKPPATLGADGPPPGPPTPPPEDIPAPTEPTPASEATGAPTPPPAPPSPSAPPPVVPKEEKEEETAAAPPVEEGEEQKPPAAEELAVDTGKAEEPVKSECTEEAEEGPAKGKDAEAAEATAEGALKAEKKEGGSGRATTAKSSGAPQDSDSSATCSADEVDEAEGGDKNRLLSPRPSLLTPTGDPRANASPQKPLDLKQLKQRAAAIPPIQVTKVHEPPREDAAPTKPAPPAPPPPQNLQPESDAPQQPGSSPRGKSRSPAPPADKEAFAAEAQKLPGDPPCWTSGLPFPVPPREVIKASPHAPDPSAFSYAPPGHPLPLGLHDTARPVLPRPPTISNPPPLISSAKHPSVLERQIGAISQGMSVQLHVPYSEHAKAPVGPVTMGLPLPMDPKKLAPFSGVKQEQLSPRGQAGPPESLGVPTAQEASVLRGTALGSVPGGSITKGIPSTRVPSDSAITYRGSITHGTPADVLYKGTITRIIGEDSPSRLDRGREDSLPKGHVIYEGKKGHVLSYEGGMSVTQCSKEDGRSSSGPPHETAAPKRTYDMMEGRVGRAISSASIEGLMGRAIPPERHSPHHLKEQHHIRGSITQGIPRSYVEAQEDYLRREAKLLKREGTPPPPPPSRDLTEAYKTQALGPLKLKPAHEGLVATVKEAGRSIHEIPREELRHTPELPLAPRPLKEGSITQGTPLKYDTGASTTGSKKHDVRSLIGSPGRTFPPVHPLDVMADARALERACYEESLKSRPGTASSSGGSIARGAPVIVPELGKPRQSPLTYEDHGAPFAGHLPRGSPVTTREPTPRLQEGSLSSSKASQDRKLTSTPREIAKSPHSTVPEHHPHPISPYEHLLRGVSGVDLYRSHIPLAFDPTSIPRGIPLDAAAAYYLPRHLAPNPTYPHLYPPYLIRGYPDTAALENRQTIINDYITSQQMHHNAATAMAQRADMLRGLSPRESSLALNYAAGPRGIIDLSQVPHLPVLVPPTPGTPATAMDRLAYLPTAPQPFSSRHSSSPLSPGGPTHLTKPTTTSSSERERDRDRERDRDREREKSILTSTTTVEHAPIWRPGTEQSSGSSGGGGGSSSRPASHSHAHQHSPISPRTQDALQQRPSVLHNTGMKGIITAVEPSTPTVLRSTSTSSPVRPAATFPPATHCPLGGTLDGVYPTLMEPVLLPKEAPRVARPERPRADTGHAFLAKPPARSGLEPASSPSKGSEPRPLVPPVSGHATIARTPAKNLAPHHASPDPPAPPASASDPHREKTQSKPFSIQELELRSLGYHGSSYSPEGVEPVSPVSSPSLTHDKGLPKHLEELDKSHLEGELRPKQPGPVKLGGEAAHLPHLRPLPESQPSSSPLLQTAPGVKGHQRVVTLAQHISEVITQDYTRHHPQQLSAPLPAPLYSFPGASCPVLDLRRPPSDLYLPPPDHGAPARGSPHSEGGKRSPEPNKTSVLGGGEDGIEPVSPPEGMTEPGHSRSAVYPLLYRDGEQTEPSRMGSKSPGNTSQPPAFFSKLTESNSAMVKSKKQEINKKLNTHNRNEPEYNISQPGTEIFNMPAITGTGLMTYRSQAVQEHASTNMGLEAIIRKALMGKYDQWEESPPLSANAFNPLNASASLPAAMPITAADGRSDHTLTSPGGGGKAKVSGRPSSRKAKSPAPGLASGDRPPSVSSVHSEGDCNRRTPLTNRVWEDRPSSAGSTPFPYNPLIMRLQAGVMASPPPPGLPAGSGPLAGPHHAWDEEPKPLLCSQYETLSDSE

Histone deacetylase 1 [4] = target: T1, Histone deacetylase 1; test: Inhibition of recombinant full length human C-terminal FLAG/His-tagged HDAC1 expressed in baculovirus infected sf9 cells preincubated for 3 hrs followed by fluorophore conjugated MAZ1600 substrate addition measured every 5 mins by fluorescence assay
[5] = target: T3, Histone deacetylase 3/Nuclear receptor corepressor 2 (HDAC3/NCoR2); test: Inhibition of human full length C-terminal His-tagged HDAC3/N-terminal GST-tagged human NCOR2 (395 to 489 residues) co-expressed in baculovirus infected Sf9 insect cells preincubated for 3 hrs followed by fluorophore conjugated MAZ1600 substrate addition measured every 5 mins by fluorescence assay
Histone deacetylase 2 [6] = target: T2, Histone deacetylase 2; test: Inhibition of human full length C-terminal His/FLAG-tagged HDAC2 expressed in baculovirus infected Sf9 cells preincubated for 3 hrs followed by fluorophore conjugated MAZ1600 substrate addition measured every 5 mins by fluorescence assay

T1 sequence (Q13547 whole entry): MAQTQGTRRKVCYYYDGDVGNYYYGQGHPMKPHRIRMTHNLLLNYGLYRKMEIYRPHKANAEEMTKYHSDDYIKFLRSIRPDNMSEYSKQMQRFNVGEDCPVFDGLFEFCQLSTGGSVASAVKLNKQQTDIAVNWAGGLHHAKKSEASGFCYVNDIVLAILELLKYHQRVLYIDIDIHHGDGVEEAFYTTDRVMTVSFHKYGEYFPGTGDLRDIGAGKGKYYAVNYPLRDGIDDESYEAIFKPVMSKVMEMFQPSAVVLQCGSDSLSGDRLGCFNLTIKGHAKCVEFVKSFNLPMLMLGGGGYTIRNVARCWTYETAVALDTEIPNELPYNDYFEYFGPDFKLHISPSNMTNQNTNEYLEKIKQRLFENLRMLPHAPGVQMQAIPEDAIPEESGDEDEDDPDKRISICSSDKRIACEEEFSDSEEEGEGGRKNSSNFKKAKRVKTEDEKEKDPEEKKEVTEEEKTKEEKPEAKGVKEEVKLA

| IC50 (Histone deacetylase 1 [4]) | IC50 [5] | IC50 (Histone deacetylase 2 [6]) | SMILES | IC50 (Histone deacetylase 1 [1]) | IC50 (Histone deacetylase 2 [2]) | Ratio IC50 (Homo sapiens) | IC50 [3] |
| --- | --- | --- | --- | --- | --- | --- | --- |
| – | – | – | O=C(/C=C(\CO)c1ccccc1)c1ccccc1 | 2740 nM | 170 nM | 20 | 50000 nM |
| 69 nM | 1300 nM | 560 nM | C[C@H](CO)N1C[C@H](C)[C@H](CN(C)Cc2ccc(C(=O)Nc3ccccc3N)cc2)Oc2ccc(N(C)C)cc2CC1=O | – | – | – | – |
